{"source": "patent US10194854B2", "about": "“Method for non-invasive monitoring of fluorescent tracer agent with background separation corrections” (MediBeacon Inc., priority 2017, dated 2019)", "test": "Absorption and emission spectra of MB-102 (FIG. 3)", "format": "physicochemical", "source_text": "By way of illustrative example, FIG. 3 is a graph summarizing the absorption spectra for HbO2 and Hb, as well as the absorption and emission spectra of frequency spectra of MB-102, an exogenous fluorescent agent in one aspect. Emission spectra for a blue LED light source and a green LED light source are also shown superimposed over the other spectra of FIG. 3. In this aspect, the system 200 may include a blue LED as the first light source 218, and the excitatory wavelength for the system 200 may be the isosbestic wavelength of about 450 nm. […] However, at wavelengths above about 500 nm, the HbO2/Hb spectra are less steeply sloped, and a broader band light source including, but not limited to, an LED with a bandpass filter may suffice for use as a first light source 218.\nIn another aspect, the excitatory wave length may be selected to enhance the contrast in light absorbance between the exogenous fluorescent agent and the chromophores within the tissues of the patient 202. […] Without being limited to any particular theory, a higher proportion of light illuminating the tissue of the patient 202 at a wavelength of about 450 nm will be absorbed by the MB-102 relative to the HbO2 and Hb, thus enhancing the efficiency of absorption by the MB-102 and reducing the intensity of light at the excitatory wavelength needed to elicit a detectable fluorescence signal. […]", "data": [{"smiles": "Nc1nc(C(=O)N[C@H](CO)C(=O)O)c(N)nc1C(=O)N[C@H](CO)C(=O)O", "note": "[MB-102]", "values": [{"measurement": "light absorption relative to the light absorption of the HbO2 and the Hb", "setting": "at the isosbestic wavelength of 452 nm", "value": "more than three-fold higher"}, {"measurement": "emission peak wavelength", "setting": "emission spectrum", "value": "about 550 nm"}]}]}
